PMC12090182, “Repurposing of the RIPK1-Selective Benzo[1,4]oxazepin-4-one Scaffold for the Development of a Type III LIMK1/2 Inhibitor” (ACS Chemical Biology, 2025)

How the values were obtained:
LIMK1 = LIMK1 (Homo sapiens, UniProt P53667); assay: NanoBRET cellular target engagement; type: cell-based; parameters: purchased Carna Biosciences; details: LIMK1, HEK293T cells
Protocol: (§1) The assay was performed as described previously.[31],[32] In brief, full-length LIMK1/2, RIPK1, BTK, and LRRK2 cloned in a frame in a NanoLuc-vector (Promega) were transfected into HEK293T cells (ATCC CRL-1573) using FuGENE HD (Promega, E2312), and proteins were allowed to express for 20 h. The serially diluted inhibitor and NanoBRET Kinase Tracer (Promega) used at the previously determined Tracer KD,app (Table S1) were pipetted into white 384-well plates (Greiner 781 207) using an ECHO 550 acoustic dispenser (Labcyte). The corresponding transfected cells were added and reseeded at a density of 2 × 10^5 cells/mL after trypsinization and resuspension in Opti-MEM without phenol red (Life Technologies). The system was allowed to equilibrate for 2 h at 37 °C and 5% CO2 prior to BRET measurements. To measure BRET, a NanoBRET Nano-Glo substrate and an extracellular NanoLuc inhibitor (Promega, N2160) were added as per the manufacturer's protocol, and filtered luminescence was measured on a PHERAstar plate reader (BMG Labtech) equipped with a luminescence filter pair (a 450 nm BP filter (donor) and a 610 nm LP filter (acceptor)). Competitive displacement data were then plotted using GraphPad Prism 10 software using a normalized three-parameter curve fit with the following equation: Y = 100/( [drawing 1] ).

LIMK2 = LIMK2 (Homo sapiens, UniProt P53671); assay: NanoBRET cellular target engagement; type: cell-based; parameters: full-length LIMK1/2, RIPK1, BTK, and LRRK2 cloned in a frame in a NanoLuc-vector (Promega); host or cells: HEK293T; details: LIMK2, HEK293T cells
Protocol: as §1

LIMK2, sequence (P53671 whole entry): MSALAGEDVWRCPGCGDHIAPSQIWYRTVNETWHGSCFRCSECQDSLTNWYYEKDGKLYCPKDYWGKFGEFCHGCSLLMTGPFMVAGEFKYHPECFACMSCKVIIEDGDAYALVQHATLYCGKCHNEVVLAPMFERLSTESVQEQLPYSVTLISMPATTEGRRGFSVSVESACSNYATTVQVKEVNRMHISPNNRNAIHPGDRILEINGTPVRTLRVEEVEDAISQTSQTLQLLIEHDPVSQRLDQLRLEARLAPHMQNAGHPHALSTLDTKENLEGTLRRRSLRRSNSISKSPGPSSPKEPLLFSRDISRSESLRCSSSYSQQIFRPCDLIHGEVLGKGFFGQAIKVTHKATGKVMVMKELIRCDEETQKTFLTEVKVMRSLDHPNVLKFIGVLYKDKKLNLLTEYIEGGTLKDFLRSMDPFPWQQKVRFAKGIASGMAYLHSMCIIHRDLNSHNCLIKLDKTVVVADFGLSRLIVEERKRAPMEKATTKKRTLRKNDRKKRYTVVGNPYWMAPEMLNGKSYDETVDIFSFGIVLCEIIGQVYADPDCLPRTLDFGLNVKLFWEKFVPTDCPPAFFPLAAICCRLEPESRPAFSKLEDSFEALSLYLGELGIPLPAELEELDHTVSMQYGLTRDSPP
LIMK1, sequence (P53667 whole entry): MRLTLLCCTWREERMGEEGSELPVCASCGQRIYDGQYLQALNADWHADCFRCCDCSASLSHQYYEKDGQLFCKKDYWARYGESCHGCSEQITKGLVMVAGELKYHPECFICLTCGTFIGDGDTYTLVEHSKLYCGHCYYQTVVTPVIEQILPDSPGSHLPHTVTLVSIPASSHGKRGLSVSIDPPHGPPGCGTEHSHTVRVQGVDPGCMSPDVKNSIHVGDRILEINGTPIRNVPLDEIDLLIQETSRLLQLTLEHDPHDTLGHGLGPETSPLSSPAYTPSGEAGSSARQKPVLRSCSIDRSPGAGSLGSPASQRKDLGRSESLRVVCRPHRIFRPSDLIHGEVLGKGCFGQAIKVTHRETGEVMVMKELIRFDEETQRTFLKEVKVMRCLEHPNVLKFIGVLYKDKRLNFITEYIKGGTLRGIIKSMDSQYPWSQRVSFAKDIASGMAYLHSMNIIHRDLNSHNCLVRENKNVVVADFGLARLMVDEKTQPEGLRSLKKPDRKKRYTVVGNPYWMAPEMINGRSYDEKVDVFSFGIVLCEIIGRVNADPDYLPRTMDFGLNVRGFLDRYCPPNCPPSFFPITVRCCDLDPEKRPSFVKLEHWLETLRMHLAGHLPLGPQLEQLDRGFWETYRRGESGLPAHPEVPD

CN1C(=O)[C@@H](N2CCc3cn(Cc4ccccc4)nc3C2=O)COc2ccccc21 [TP-030-1]
EC50 (LIMK1): 42 µM | EC50 (LIMK2): 38 µM
